How the values were obtained:
[1] = test system: Botrytis cinerea (BOTRCI) on table grapes; test: In vivo disease severity on wound-inoculated table grapes, benzoxaborole and CO2 chamber treatment
Source text: (§1) The following experiments were used to determine synergy between benzoxaborole Compounds A, B, and/or C and preservative gases, such as carbon dioxide (CO2) and sulfur dioxide (SO2). Specific rates or any other unique conditions are noted within the corresponding results tables. Each experiment comprised an air-tight 36 liter (L) chamber (Fisher Scientific, P/N: 08-642-23C), fitted with a bulkhead septum port (Swagelok, P/N: SS-400-61, Solon, OH) used for treatment delivery, as well as for monitoring (using needle extraction) carbon dioxide (CO2), sulfur dioxide (SO2), oxygen (O2) or other headspace samples. A variable speed fan (Thermaltake, Mobile Fan II, P/N: A1888, Taipei City, Taiwan) set to low was also used to circulate the headspace atmosphere.
(§2) Similarly, table grape fruits were also tested in vivo. More specifically, 16-20 table grapes per repetition were washed and inoculated with pathogens (as described above for the strawberries). However, an ethanol-sterilized push pin, rather than a T15 screwdriver, was used to wound the stem-end of the grapes. The grapes were inoculated in the wound, and then arranged inside a 1-pint clamshell.
(§3) For treatment, the inoculated agar plates and clamshells containing fruits (e.g., strawberries and grapes) were placed inside a 36 L experimental chamber unit, which was then sealed prior to commencement of compound treatments. The chamber remained sealed throughout the duration of the experiment except for addition of treatment to the chamber, and post-treatment ventilation.
(§4) Benzoxaborole Compound A or Compound B was dissolved in acetone and dispensed onto a 60 mm Whatman #1 filter paper disk using a pipette. The acetone was permitted to evaporate for five minutes before the disk was placed on a watch glass in each chamber.
(§5) A 12% CO2 headspace treatment was then established in the chamber by permitting 10 grams (g) of crushed dry ice placed in a weigh boat in the chamber to evaporate in the sealed chamber. However, the bulkhead port of the chamber was loosened to permit the release of internal pressure. Optionally, a fan was used during the initial hours of treatment (i.e., up to about 6 hours of treatment) to ensure uniform treatment exposure of fruits and plates.
(§6) Untreated controls and CO2 treated chambers contained an acetone-treated disk with similar evaporation for five minutes. CO2 and O2 levels in the chamber were monitored using a handheld gas detector (Dansensor Checkpoint II; P/N 600111, Ringsted, Denmark). Temperature and relative humidity were also monitored within the chamber using data loggers (Onset HOBO; P/N U12-013, Bourne, MA).
(§7) The chamber for all in vitro and in vivo experiments was held at room temperature (i.e., from about 21° C. to about 23° C.) typically for about 3.5 days (i.e., about 84 hours) of treatment exposure. Chambers were then vented. After an additional 2-3 days with the chamber at room temperature, post-treatment radial growth (in mm) of each in vitro pathogen (see Examples 1-7, Tables 1-7) was measured on the inoculated plates using electronic calipers (Mitutoyo, P/N: CD-6-CX, Aurora, IL). In addition, the point of inoculation on fruits was assessed for indication of in vivo disease incidence (e.g., yes or no) and severity of disease incidence (see Examples 8-16, Tables 8-16). Disease severity was rated on a scale ranging from 0 to 4, where “0” indicated no disease severity, “1” indicated minimal disease severity, “2” indicated medium disease severity, “3” indicated high disease severity, and “4” indicated exceptionally high disease severity. […]

[2] = test system: Penicillium expansum (PENIEX) on table grapes; test: as above
Source text: as §1, §2, §3, §4, §5, §6, §7

[3] = test system: Mucor piriformis (MUCOPI) on strawberries; test: In vivo disease severity on wound-inoculated strawberries, benzoxaborole and CO2 chamber treatment
Source text: as §1
(§8) For in vivo experiments, eight strawberry fruits per repetition were surface sterilized with a 70% ethanol solution. After sterilization, the strawberries were rinsed twice with deionized water. Each strawberry fruit was wounded using a T15 screwdriver tip to a uniform depth of eight mm (8 mm). Each fruit wound was inoculated with 20 μL of 1×10^5 spores/ml pathogen spore suspension of B. cinerea or M. piriformis. The strawberries were then placed with the stem facing downwards inside a 1-pound strawberry clamshell.
as §3, §4, §5, §6, §7

[4] = test system: Botrytis cinerea (BOTRCI) on strawberries; test: as above
Source text: as §1, §8, §3, §4, §5, §6, §7

[5] = test system: Mucor piriformis (MUCOPI); test: In vitro fungal growth on inoculated agar plates, benzoxaborole and CO2 chamber treatment; type: cell-based
Source text: as §1
(§9) In vitro and in vivo experiments were performed concurrently in triple replicates (i.e., triplicate) unless otherwise noted. For in vitro experiments, a single 6-well microtiter plate or three, 10-cm petri plates each containing half strength Potato Dextrose Agar were prepared. Each well or plate was inoculated with 1 microliter (μL) of 1×10^5 spores/ml of the appropriate pathogenic spore suspension (e.g., Botrytis cinerea, BOTRCI; Penicillium expansum, PENIEX; Mucor piriformis, MUCOPI; Fusarium sambucinum FUSASA; or Aspergillus brasiliensis, ASPEBR). The inoculated microtiter or petri plates were then sealed with a breathable film (AeraSeal; P/N: B-100, Excel Scientific, Victorville, CA).
as §3, §4, §5, §6, §7

[6] = test system: Aspergillus brasiliensis (ASPEBR); test: as above; type: cell-based
Source text: as §1, §9, §3, §4, §5, §6, §7

With `OB1OCc2cc(F)ccc21` [Compound A] the “Colby Calculation” value ([1]; Table 15, compound 0.035 mg/L + 12% CO2, Colby equation E=x+y−x*y/100) was 115.2, the “Growth (Severity, 0 to 4) Cmpd + 12% CO2” value ([1]; Table 15, compound 0.035 mg/L + 12% CO2, evaluated 1 day after treatment, fan continuous) was 0.7 and the “Growth (Severity, 0 to 4) Cmpd” value ([1]; Table 15, compound alone 0.035 mg/L, evaluated 1 day after treatment, fan continuous) was 0.9. For the same molecule, the “Colby Calculation” value ([2]; Table 16, compound 0.035 mg/L + 12% CO2, Colby equation E=x+y−x*y/100) was 108.2, the “Growth (Severity, 0 to 4) Cmpd + 12% CO2” value ([2]; Table 16, compound 0.035 mg/L + 12% CO2, evaluated 1 day after treatment, fan continuous) was 1.3 and the “Growth (Severity, 0 to 4) Cmpd” value ([2]; Table 16, compound alone 0.035 mg/L, evaluated 1 day after treatment, fan continuous) was 1.8. For the same molecule, the “Colby Calculation” value ([3]; Table 10, compound 0.14 mg/L + 12% CO2, Colby equation E=x+y−x*y/100) was 106.8, the “Growth (Severity, 0 to 4) Cmpd + 12% CO2” value ([3]; Table 10, compound 0.14 mg/L + 12% CO2, evaluated 2 days after treatment, fan first 6 hours, >90% R.H.) was 0.2 and the “Growth (Severity, 0 to 4) Cmpd” value ([3]; Table 10, compound alone 0.14 mg/L, evaluated 2 days after treatment, fan first 6 hours, >90% R.H.) was 0.5. For the same molecule, the “Colby Calculation” value ([4]; Table 8, compound 0.14 mg/L + 12% CO2, Colby equation E=x+y−x*y/100) was 176.2, the “Growth (Severity, 0 to 4) Cmpd + 12% CO2” value ([4]; Table 8, compound 0.14 mg/L + 12% CO2, evaluated 2 days after treatment, 4 replicates, fan first 6 hours, >90% R.H.) was 0.4 and the “Growth (Severity, 0 to 4) Cmpd” value ([4]; Table 8, compound alone 0.14 mg/L, evaluated 2 days after treatment, 4 replicates, fan first 6 hours, >90% R.H.) was 2.1. For the same molecule, the “Colby Calculation” value ([4]; Table 9, compound 0.14 mg/L + 12% CO2, Colby equation E=x+y−x*y/100) was 107.6, the “Growth (Severity, 0 to 4) Cmpd + 12% CO2” value ([4]; Table 9, compound 0.14 mg/L + 12% CO2, evaluated 3 days after treatment, fan first 6 hours, >90% R.H.) was 0.8 and the “Growth (Severity, 0 to 4) Cmpd” value ([4]; Table 9, compound alone 0.14 mg/L, evaluated 3 days after treatment, fan first 6 hours, >90% R.H.) was 1.1. For the same molecule, the “Colby Calculation” value ([4]; Table 11, compound 0.14 mg/L + 12% CO2, Colby equation E=x+y−x*y/100) was 109.0, the “Growth (Severity, 0 to 4) Cmpd + 12% CO2” value ([4]; Table 11, compound 0.14 mg/L + 12% CO2, evaluated 2 days after treatment, fan first 6 hours, >90% R.H.) was 0.8 and the “Growth (Severity, 0 to 4) Cmpd” value ([4]; Table 11, compound alone 0.14 mg/L, evaluated 2 days after treatment, fan first 6 hours, >90% R.H.) was 1.4. The “Colby Calculation” value ([4]; Table 12, compound 0.14 mg/L + 12% CO2, Colby equation E=x+y−x*y/100) was 107.9, the “Growth (Severity, 0 to 4) Cmpd + 12% CO2” value ([4]; Table 12, compound 0.14 mg/L + 12% CO2, evaluated 2 days after treatment, fan first 6 hours, >90% R.H.) was 0.4 and the “Growth (Severity, 0 to 4) Cmpd” value ([4]; Table 12, compound alone 0.14 mg/L, evaluated 2 days after treatment, fan first 6 hours, >90% R.H.) was 0.7. The “Colby Calculation” value ([4]; Table 13, compound 0.14 mg/L + 12% CO2, Colby equation E=x+y−x*y/100) was 163.4, the “Growth (Severity, 0 to 4) Cmpd + 12% CO2” value ([4]; Table 13, compound 0.14 mg/L + 12% CO2, evaluated 3 days after treatment, fan run continuously) was 1.4 and the “Growth (Severity, 0 to 4) Cmpd” value ([4]; Table 13, compound alone 0.14 mg/L, evaluated 3 days after treatment, fan run continuously) was 2.4. The “Colby Calculation” value ([4]; Table 14, compound 0.0044 mg/L + 12% CO2, Colby equation E=x+y−x*y/100) was 114.8, the “Growth (Severity, 0 to 4) Cmpd + 12% CO2” value ([4]; Table 14, compound 0.0044 mg/L + 12% CO2, evaluated 3 days after treatment, fan continuous) was 3.2 and the “Colby Calculation” value ([4]; Table 14, compound 0.0088 mg/L + 12% CO2, Colby equation E=x+y−x*y/100) was 502.5. For the same molecule, the “Growth (Severity, 0 to 4) Cmpd + 12% CO2” value ([4]; Table 14, compound 0.0088 mg/L + 12% CO2, evaluated 3 days after treatment, fan continuous) was 0.6, the “Growth (Severity, 0 to 4) Cmpd” value ([4]; Table 14, compound alone 0.0044 mg/L, evaluated 3 days after treatment, fan continuous) was 3.4 and the “Growth (Severity, 0 to 4) Cmpd” value ([4]; Table 14, compound alone 0.0088 mg/L, evaluated 3 days after treatment, fan continuous) was 3.3. The “Colby Calculation” value ([5]; Table 3, compound 0.14 mg/L + 12% CO2, Colby equation E=x+y−x*y/100) was 189.0, the “Growth (diameter, mm) Cmpd + 12% CO2” value ([5]; Table 3, compound 0.14 mg/L + 12% CO2, evaluated 2 days after treatment, 6-well microtiter plate, fan first 6 hours, >90% R.H.) was 11.0 mm and the “Growth (diameter, mm) Cmpd” value ([5]; Table 3, compound alone 0.14 mg/L, evaluated 2 days after treatment, 6-well microtiter plate, fan first 6 hours, >90% R.H.) was 22.3 mm. For the same molecule, the “Colby Calculation” value ([6]; Table 5, compound 0.14 mg/L + 12% CO2, Colby equation E=x+y−x*y/100) was 108.3, the “Growth (diameter, mm) Cmpd + 12% CO2” value ([6]; Table 5, compound 0.14 mg/L + 12% CO2, evaluated 2 days after treatment, 6-well plate, fan first 6 hours, >90% R.H.) was 0.0 mm and the “Growth (diameter, mm) Cmpd” value ([6]; Table 5, compound alone 0.14 mg/L, evaluated 2 days after treatment, 6-well plate, fan first 6 hours, >90% R.H.) was 2.6 mm.
